# From patent publication EP0252380B1, “Antibiotic LL-E19020 alpha and beta” (AMERICAN CYANAMID COMPANY, priority 1986, dated 1988)
# Marks after values point to notes of the source that are not given here.
# How the values were obtained:
# [1] = tested on: Streptococcus sp. (β-hemolytic); experiment: In vitro antibacterial activity, standard agar dilution method (Table II); type: cell-based
# Escherichia coli = experiment: as above; type: cell-based; settings: strain 311
# Klebsiella pneumoniae = experiment: as above; type: cell-based; settings: strain AD
# Morganella morganii = experiment: as above; type: cell-based; settings: strain VGH-84-71
# Serratia marcescens = experiment: as above; type: cell-based; settings: strain K-84-18
# Clostridium difficile = experiment: as above; type: cell-based; settings: strain ATCC 17858
# Clostridium perfringens = type: cell-based; settings: strain ATCC 13124
# Peptococcus magnus = experiment: In vitro antibacterial activity, standard agar dilution method (Table II); type: cell-based
# Staphylococcus aureus = experiment: Minimum inhibitory concentration by agar dilution (Table VI); type: cell-based; settings: 7 strains tested
# Streptococcus pyogenes = experiment: as above; type: cell-based; settings: 2 strains tested
# Streptococcus faecalis = experiment: as above; type: cell-based; settings: 1 strain tested
# Salmonella choleraesuis = experiment: as above; type: cell-based; settings: 2 strains tested
# [2] = Growth of chickens and efficiency of feed utilization (Example 5, Table VIII); type: in vivo, Peterson X Arbor Acres chicks; settings: for Feed/Gain 0-1 Wk: control 1.21; for Feed/Gain 0-2 Wk: control 1.33; for Feed/Gain 0-3 Wk: control 1.43; for efficiency of feed utilization (statement in words) / weight gains of chicks (statement in words): over unmedicated controls
# Experimental: In this test one day old Peterson X Arbor Acres chicks are sorted into equal weight groups of 5 males and 5 females per cage. Cages are randomized to treatment groups with six replicates per treatment. Each compound is tested at 50 and 100 ppm in the diet and evaluated against chicks receiving a non-medicated diet.
# The chicks are weighed at the start of the test and at 1 week intervals thereafter to the conclusion of said test. The chicks are given free access to feed and water during the entire test period. The feed is weighed when provided to the chicks and excess feed collected and weighed when the cages are cleaned.
# The poultry diet employed in the test is as follows: Vitamin-amino acid premix 0.5% Trace minerals 0.1% Sodium chloride 0.3% Dicalcium phosphate 1.2% Ground limestone 0.5% Stabilized fat 4.0% Dehydrated alfalfa, 17% protein 2.0% Corn gluten meal, 41% protein 5.0% Menhaden fish meal, 60% protein 5.0% Soybean oil meal, 44% protein 30.0% Ground yellow corn, fine to 100.0%
# The vitamin-amino acid premix in the above feed composition is prepared from the following formulation. The expressions of quantity relate to units per kilogram of the finished feed compositions. Butylated hydroxy toluene 125.0 mg d1-Methionine 500.0 mg Vitamin A 3300.0 I.U. Vitamin D₃ 1100.0 I.C.U. Riboflavin 4.4 mg Vitamin E 2.2 I.U. Niacin 27.5 mg Panthothenic acid 8.8 mg Choline chloride 500.0 mg Folic acid 1.43 mg Menadione sodium bisulfate 1.1 mg Vitamin B₁₂ 11.0 mcg Ground yellow corn, fine to […]
# [3] = tested on: In Vitro Rumen Fermentation; experiment: Propionate enhancement activity during in vitro rumen fermentation; type: cell-based, steer; settings: for A:P: acetate/propionate ratio
# Experimental: The drugs are dissolved or suspended (sonified if necessary) in a 0.1% Tween 20-ethanol-water vehicle and 25-50 ul is added to the incubation. The reaction is terminated with 6N HCl and centrifuged at 20,000 x g. Alliquots of the superinatant are analyzed for volatile fatty acid (VFA) content by gas-liquid chromatography.
# [4] = tested on: Streptococcus pyogenes C203; experiment: In vivo antibacterial activity in infected mice (Table III); settings: S. pyogenes C203, 30 minutes before infection
# Treponema hyodysenteriae = experiment: T. hyodysenteriae disk test (primary in vitro disk diffusion test); settings: disks soaked in 2.5 mg/ml solution, zones of inhibited hemolysis
# Babesia bovis = experiment: Anti-Babesia bovis activity, 3H hypoxanthine incorporation in in vitro culture; settings: parasitemia of 4%
# [5] = Table X, 0.008 PPM, control 2.65
# [6] = Table X, 0.008 PPM, control 159.4
# [7] = Table X, 0.031 PPM, control 2.65
# [8] = Table X, 0.031 PPM, control 159.4
# [9] = Table X, 0.125 PPM, control 2.65
# [10] = Table X, 0.125 PPM, control 159.4
# [11] = Table X, 0.500 PPM, control 2.65
# [12] = Table X, 0.500 PPM, control 159.4
# [13] = Table X, 2.000 PPM, control 2.65
# [14] = Table X, 2.000 PPM, control 159.4
# [15] = Table XI, 0.015 PPM, control 2.19
# [16] = Table XI, 0.015 PPM, control 125.3
# [17] = Table XI, 0.031 PPM, control 2.19
# [18] = Table XI, 0.031 PPM, control 125.3
# [19] = Table XI, 0.062 PPM, control 2.19
# [20] = Table XI, 0.062 PPM, control 125.3
# [21] = Table XI, 0.125 PPM, control 2.19
# [22] = Table XI, 0.125 PPM, control 125.3
# [23] = Table XI, 0.250 PPM, control 2.19
# [24] = Table XI, 0.250 PPM, control 125.3
# [25] = single subcutaneous dose 4 mg/kg
# [26] = single subcutaneous dose 8 mg/kg
# [27] = single subcutaneous dose 16 mg/kg
# [28] = single subcutaneous dose 32 mg/kg
# [29] = single subcutaneous dose 64 mg/kg
smiles,measurement,setting,value
C/C=C\C=C\[C@@H]1O[C@](O)([C@H](CO[C@H]2C[C@@H](OC)[C@@H](O[C@@H]3C[C@@H](OC)[C@@H](O[C@H]4C[C@H](OC)[C@H](O)[C@H](C)O4)[C@H](C)O3)[C@@H](C)O2)C(=O)NC/C=C/C=C(\C)[C@@H](OC)[C@H](C)[C@H]2C[C@H](O)[C@H](/C=C/C=C/C=C/C(=O)O)O2)[C@H](OC(=O)Cc2ccccc2)[C@H](O)C1(C)C [LL-E19020 alpha],Minimal Inhibitory Concentration,[1]; strain C203,0.5 µg/mL
same,Minimal Inhibitory Concentration,[1]; strain VGH-84-60,0.25 µg/mL
same,Minimal Inhibitory Concentration,[1]; strain VGH-84-61,1 µg/mL
same,Minimal Inhibitory Concentration,[1]; strain VGH-84-62,1 µg/mL
same,Minimal Inhibitory Concentration,[1]; strain VGH-84-63,0.12 µg/mL
same,Minimal Inhibitory Concentration,[1]; strain VGH-84-64,0.12 µg/mL
same,Minimal Inhibitory Concentration,Escherichia coli,>256 µg/mL
same,Minimal Inhibitory Concentration,Klebsiella pneumoniae,>256 µg/mL
same,Minimal Inhibitory Concentration,Morganella morganii,>256 µg/mL
same,Minimal Inhibitory Concentration,Serratia marcescens,>256 µg/mL
same,Minimal Inhibitory Concentration,Clostridium difficile,4 µg/mL
same,Minimal Inhibitory Concentration,Clostridium perfringens,16 µg/mL
same,Minimal Inhibitory Concentration,Peptococcus magnus; strain ATCC 14956,0.12 µg/mL
same,Minimal Inhibitory Concentration,Peptococcus magnus; strain ATCC 29328,0.12 µg/mL
same,MIC,Staphylococcus aureus,≧ 256 µg/ml
same,MIC,Streptococcus pyogenes,2 µg/mL
same,MIC,Streptococcus faecalis,8 µg/mL
same,MIC,Salmonella choleraesuis,> 256 µg/mL
same,Weight Gains % Improvement over Controls 0-1 Wk,[2]; 50 ppm in the diet,12.5** %
same,Weight Gains % Improvement over Controls 0-2 Wk,[2]; 50 ppm in the diet,4.1* %
same,Weight Gains % Improvement over Controls 0-3 Wk,[2]; 50 ppm in the diet,4.2* %
same,Feed/Gain 0-1 Wk,[2]; 50 ppm in the diet,1.11*
same,Feed/Gain 0-2 Wk,[2]; 50 ppm in the diet,1.30
same,Feed/Gain 0-3 Wk,[2]; 50 ppm in the diet,1.38
same,Weight Gains % Improvement over Controls 0-1 Wk,[2]; 100 ppm in the diet,8.9* %
same,Weight Gains % Improvement over Controls 0-2 Wk,[2]; 100 ppm in the diet,6.3** %
same,Weight Gains % Improvement over Controls 0-3 Wk,[2]; 100 ppm in the diet,6.1** %
same,Feed/Gain 0-1 Wk,[2]; 100 ppm in the diet,1.12*
same,Feed/Gain 0-2 Wk,[2]; 100 ppm in the diet,1.27
same,Feed/Gain 0-3 Wk,[2]; 100 ppm in the diet,1.39
same,efficiency of feed utilization (statement in words),[2],increased the efficiency of feed utilization
same,weight gains of chicks (statement in words),[2],improved the weight gains of chicks
same,A:P,[3]; [5],2.66
same,TOTAL VFA,[3]; [6],161.2 mM
same,A:P,[3]; [7],2.43
same,TOTAL VFA,[3]; [8],158.4 mM
same,A:P,[3]; [9],2.14
same,TOTAL VFA,[3]; [10],159.2 mM
same,A:P,[3]; [11],2.27
same,TOTAL VFA,[3]; [12],146.9 mM
same,A:P,[3]; [13],2.21
same,TOTAL VFA,[3]; [14],150.5 mM
same,A:P,[3]; [15],2.05
same,TOTAL VFA,[3]; [16],125.1 mM
same,A:P,[3]; [17],1.96
same,TOTAL VFA,[3]; [18],126.5 mM
same,A:P,[3]; [19],1.90
same,TOTAL VFA,[3]; [20],126.3 mM
same,A:P,[3]; [21],1.92
same,TOTAL VFA,[3]; [22],121.9 mM
same,A:P,[3]; [23],1.85
same,TOTAL VFA,[3]; [24],121.1 mM
same,Survival Ratios 7 Days After Infection,[4]; [25],2/5
same,Survival Ratios 7 Days After Infection,[4]; [26],4/5
same,Survival Ratios 7 Days After Infection,[4]; [27],5/5
same,Survival Ratios 7 Days After Infection,[4]; [28],5/5
same,Survival Ratios 7 Days After Infection,[4]; [29],5/5
same,ZONE SIZE,Treponema hyodysenteriae; strain B78 (ATCC 27164),0 mm
same,ZONE SIZE,Treponema hyodysenteriae; strain B204 (ATCC 31212),15 mm
same,50% inhibitory concentration,Babesia bovis,0.625 µg/mL
C/C=C/C=C/[C@@H]1O[C@](O)([C@H](CO[C@H]2C[C@H](OC)[C@H](O[C@@H]3C[C@H](OC)[C@@H](O[C@H]4C[C@H](OC)[C@H](O)[C@H](C)O4)[C@H](C)O3)[C@H](C)O2)C(=O)NC/C=C/C=C(\C)[C@H](OC)[C@@H](C)[C@@H]2C[C@H](O)[C@@H](/C=C/C=C/C=C\C(=O)O)O2)[C@@H](O)[C@H](OC(=O)Cc2ccccc2)C1(C)C [LL-E19020 beta],Minimal Inhibitory Concentration,[1]; strain C203,0.5 µg/mL
same,Minimal Inhibitory Concentration,[1]; strain VGH-84-60,0.25 µg/mL
same,Minimal Inhibitory Concentration,[1]; strain VGH-84-61,0.5 µg/mL
same,Minimal Inhibitory Concentration,[1]; strain VGH-84-62,0.5 µg/mL
same,Minimal Inhibitory Concentration,[1]; strain VGH-84-63,0.12 µg/mL
same,Minimal Inhibitory Concentration,[1]; strain VGH-84-64,0.12 µg/mL
same,Minimal Inhibitory Concentration,Escherichia coli,>128 µg/mL
same,Minimal Inhibitory Concentration,Klebsiella pneumoniae,>128 µg/mL
same,Minimal Inhibitory Concentration,Morganella morganii,>128 µg/mL
same,Minimal Inhibitory Concentration,Serratia marcescens,>128 µg/mL
same,Minimal Inhibitory Concentration,Clostridium difficile,1 µg/mL
same,Minimal Inhibitory Concentration,Clostridium perfringens,4 µg/mL
same,Minimal Inhibitory Concentration,Peptococcus magnus; strain ATCC 14956,0.5 µg/mL
same,Minimal Inhibitory Concentration,Peptococcus magnus; strain ATCC 29328,0.5 µg/mL
same,MIC,Streptococcus pyogenes,2 to 4 µg/mL
same,MIC,Streptococcus faecalis,8 µg/mL
same,MIC,Salmonella choleraesuis,> 256 µg/mL
same,Weight Gains % Improvement over Controls 0-1 Wk,[2]; 50 ppm in the diet,12.7** %
same,Weight Gains % Improvement over Controls 0-2 Wk,[2]; 50 ppm in the diet,4.5* %
same,Weight Gains % Improvement over Controls 0-3 Wk,[2]; 50 ppm in the diet,5.3* %
same,Feed/Gain 0-1 Wk,[2]; 50 ppm in the diet,1.11*
same,Feed/Gain 0-2 Wk,[2]; 50 ppm in the diet,1.31
same,Feed/Gain 0-3 Wk,[2]; 50 ppm in the diet,1.40
same,Weight Gains % Improvement over Controls 0-1 Wk,[2]; 100 ppm in the diet,10.7* %
same,Weight Gains % Improvement over Controls 0-2 Wk,[2]; 100 ppm in the diet,5.1* %
same,Weight Gains % Improvement over Controls 0-3 Wk,[2]; 100 ppm in the diet,5.9** %
same,Feed/Gain 0-1 Wk,[2]; 100 ppm in the diet,1.13*
same,Feed/Gain 0-2 Wk,[2]; 100 ppm in the diet,1.29
same,Feed/Gain 0-3 Wk,[2]; 100 ppm in the diet,1.38
same,efficiency of feed utilization (statement in words),[2],increased the efficiency of feed utilization
same,weight gains of chicks (statement in words),[2],improved the weight gains of chicks
same,A:P,[3]; [5],2.63
same,TOTAL VFA,[3]; [6],161.2 mM
same,A:P,[3]; [7],2.44
same,TOTAL VFA,[3]; [8],161.1 mM
same,A:P,[3]; [9],2.19
same,TOTAL VFA,[3]; [10],161.6 mM
same,A:P,[3]; [11],2.15
same,TOTAL VFA,[3]; [12],156.7 mM
same,A:P,[3]; [13],2.18
same,TOTAL VFA,[3]; [14],153.8 mM
same,A:P,[3]; [15],2.03
same,TOTAL VFA,[3]; [16],127.2 mM
same,A:P,[3]; [17],1.98
same,TOTAL VFA,[3]; [18],125.7 mM
same,A:P,[3]; [19],1.96
same,TOTAL VFA,[3]; [20],123.7 mM
same,A:P,[3]; [21],1.92
same,TOTAL VFA,[3]; [22],124.3 mM
same,A:P,[3]; [23],1.93
same,TOTAL VFA,[3]; [24],122.6 mM
same,Survival Ratios 7 Days After Infection,[4]; [25],2/5
same,Survival Ratios 7 Days After Infection,[4]; [26],3/5
same,Survival Ratios 7 Days After Infection,[4]; [27],5/5
same,Survival Ratios 7 Days After Infection,[4]; [28],5/5
same,Survival Ratios 7 Days After Infection,[4]; [29],5/5
same,ZONE SIZE,Treponema hyodysenteriae; strain B204 (ATCC 31212),11 mm
